Data on 15 compounds can be found in article PMC3856094, “Identification of Novel Small Molecules as Inhibitors of Hepatitis C Virus by Structure-Based Virtual Screening” (International Journal of Molecular Sciences, 2013).

Several values for one entry are separate records, joined by “and”; a condition that tells them apart may be missing. Equal values may be shown once.

The test system of data set [1] is HCV replicon, Huh7 (NS3-5B) cells. Briefly: cell-based HCV replicon assay (luciferase). Details: species or system Hepatitis C virus genotype 1b. The note with it: for IC50: genotype 1b, Huh7 (NS3-5B) cells, 48 h incubation, luciferase readout; for SI (selectivity index): ratio of CC50/IC50. Here is the method: Huh7 (NS3-5B) cells correspond to a stable cell line transfected with HCV NS3-5B genotype 1b. The cells were seeded (1 × 10^4 cells per well) in Dulbecco’s Modified Eagle Medium (DMEM) supplemented with 10% fetal bovine serum, 2 mM glutamine, penicillin (100 IU/mL)/streptomycin (100 μg/mL), 1× nonessential amino acids and 0.5 mg/mL G418 in 96-well plates overnight. Compounds were diluted and added to each well. Each concentration was measured in duplicate. After 48 h of incubation, 100 μL of Steady-Glo Luciferase buffer (E2550, Promega, Beijing, China) was added to each well and shaken for 10 min, and the results were read on plate reader (ENVISION, PerkinElmer, Shanghai, China). The IC50 values were calculated by fitting with the parameter of the Hill equation.
(Replicon systems follow genome replication, usually without infectious particles.)

Details of data set [2]: method as in SPECS. Particulars: values provided by vendor; ref SPECS; cited from earlier work.
On the set-up of data set [3]: method as in SPECS. Particulars: values provided by vendor; ref SPECS; cited from earlier work. This is another data set of the same source.
Data set [4] is described as follows: cell cytotoxicity assay (MTT). The note with it: human, 50% cytotoxicity concentration, Huh7 (NS3-5B) cells. The data set is classed as cell-based. Here is the method: To determine if the compounds were cytotoxic to Huh7 (NS3-5B) cells, the cells (1 × 10^4 cells per well) were plated on 96-well microtiter plates and were incubated at 37 °C in 5% CO2 overnight. Various concentrations of the compounds were added to the wells. 48 h later, 10 μL of MTT (M2128, Sigma, Shanghai, China) were added to each well and incubated at 37 °C for 4 h. One-hundred microliters of MTT buffer (10% SDS + 5% isobutyl alcohol + 10 mmol/L HCl) were added overnight, and the optical density readings were measured by colorimeter at 580 and 680 nm.

The target in a further data set is T1, HCV NS3/4A protease (Hepatitis C virus genotype 1b, UniProt O92972).
T1 construct: HCV NS3/4A protease diluent (10 ng, 10 μL); purchased AnaSpec 71126 (assay kit)
Briefly: HCV NS3/4A protease assay (SensoLyte 490 kit). The note with it: inhibition percentage at 50 μM in biochemical protease assay, mean of duplicate wells. As for the experimental part: A SensoLyte® 490 HCV Protease Assay Kit (AnaSpec, Cat#71126) was used for screening HCV protease inhibitors. The test compounds (100 nL of 200× final concentration, prepared by the ECHO liquid handler (ECHO, Labcyte, CA, USA)) and HCV NS3/4A protease diluent (10 ng, 10 μL) were added into a 384-well black microplate (Corning #3573). The known HCV NS3/4A protease inhibitor (Ac-DEDif-EchaC, AnaSpec Cat#25346) was used as a control. The plate was incubated at room temperature for enzymatic reaction for 10 min. In the meantime, the HCV NS3/4A protease substrate solution was also incubated at the same temperature. The reaction was initiated by adding 10 μL of HCV NS3/4A protease substrate. The reagents were completely mixed by shaking the plate gently for 30–60 s. For the kinetic reading, the fluorescence intensity at Ex/Em = 340 nm/490 nm was immediately measured, and the data was recorded every 2 min for 30 min.

T1 sequence (O92972 1658-1711): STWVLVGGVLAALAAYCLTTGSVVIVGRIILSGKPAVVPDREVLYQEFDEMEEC
T1 sequence (O92972 1027-1657): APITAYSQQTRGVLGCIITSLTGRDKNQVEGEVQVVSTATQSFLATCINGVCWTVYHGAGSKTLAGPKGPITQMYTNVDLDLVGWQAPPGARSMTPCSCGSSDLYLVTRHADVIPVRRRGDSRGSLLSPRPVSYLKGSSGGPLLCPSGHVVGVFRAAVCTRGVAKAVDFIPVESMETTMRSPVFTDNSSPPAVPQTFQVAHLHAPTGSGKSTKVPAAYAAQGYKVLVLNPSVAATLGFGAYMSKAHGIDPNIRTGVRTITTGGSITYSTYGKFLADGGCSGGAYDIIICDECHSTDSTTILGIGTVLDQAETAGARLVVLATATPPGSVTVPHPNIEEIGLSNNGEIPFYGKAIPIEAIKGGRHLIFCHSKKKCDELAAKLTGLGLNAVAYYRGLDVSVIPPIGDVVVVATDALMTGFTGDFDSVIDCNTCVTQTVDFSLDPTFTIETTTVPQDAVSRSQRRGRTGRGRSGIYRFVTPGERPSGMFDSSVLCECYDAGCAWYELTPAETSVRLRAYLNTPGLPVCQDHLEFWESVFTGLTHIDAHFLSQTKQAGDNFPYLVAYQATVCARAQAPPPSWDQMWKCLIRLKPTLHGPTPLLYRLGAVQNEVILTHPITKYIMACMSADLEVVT

One may read the IC50 as the concentration needed to halve the response being measured. Higher therefore signals a need for much substance. In general, LogP refers to a log measure of how a compound divides between an organic and an aqueous phase. Usually CC50 stands for the concentration giving 50% cytotoxicity. Low values mean greater toxicity to the cells, high ones lower toxicity to the cells. Broadly, the inhibition is the share of the control response that was lost under treatment. Read a low inhibition as a response near the control. The compound `O=C(N/N=C/c1ccc(O)cc1O)c1[nH]nc2c1CCCC2` [Compound 1] had an IC50 in data set [1] (Hepatitis C virus, Huh-7, 48 h) of 4.69 µM. Moreover, the “SI (selectivity index)” value in data set [1] is recorded as 0.10. The LogP in data set [2] is 0.27. In addition, in data set [3], the LogS is given as −3.01. This compound showed a CC50 at 48 h in data set [4] of 0.46 µM. The compound also came in with an inhibition at 50 µM against HCV NS3/4A protease of 96.7%.

Compound `O=C(NC(C(=O)N/N=C/c1ccc(O)cc1O)c1n[nH]c(=O)c2ccccc12)c1ccccc1` (stereo not shown) [Compound 2] registered an IC50 in data set [1] (Hepatitis C virus, Huh-7, 48 h) of 11.2 µM. Moreover, the “SI (selectivity index)” value in data set [1] is above 4.46. Also, in data set [2], the LogP is 1.95. In data set [3], the LogS is −3.90. In addition, in data set [4], the CC50 at 48 h was above 50 µM. The inhibition at 50 µM at HCV NS3/4A protease is 77.9%.

As to `Cc1ccc(O)c(/C=N/NC(=O)C2C(=O)NCC2c2ccccc2)c1` (stereo not shown) [Compound 3], the IC50 in data set [1] (Hepatitis C virus, Huh-7, 48 h) was 13.4 µM. Besides, in data set [1], the “SI (selectivity index)” value is above 3.73. Also, the LogP in data set [2] was 2.75. Moreover, the LogS in data set [3] was −3.69. This compound had a CC50 at 48 h in data set [4] above 50 µM.

Take `COc1ccc(/C=N/NC(=O)c2ccc(O)cc2O)cc1O` [Compound 4]: the IC50 in data set [1] (Hepatitis C virus, Huh-7, 48 h) worked out at 15.3 µM. The “SI (selectivity index)” value in data set [1] was above 3.27. Also, the LogP in data set [2] was 2.2. In addition, the LogS in data set [3] is listed as −2.48. Moreover, in data set [4], the CC50 at 48 h is above 50 µM. The inhibition at 50 µM against HCV NS3/4A protease is 56.9%.

As to `COc1cccc(/C=N/NC(=O)c2cc3ccccc3nc2C)c1O` [Compound 5], the IC50 in data set [1] (Hepatitis C virus, Huh-7, 48 h) was 3 µM; in data set [1], 3.01 µM. Moreover, in data set [2], the LogP was 3.17. Further, the LogS in data set [3] is given as −4.05. The CC50 at 48 h in data set [4] was above 50 µM.

`O=C(CSc1nnc(CNc2ccccc2)n1-c1ccc(Cl)cc1Cl)N/N=C/c1c2ccccc2cc2ccccc12` [Compound 6] displayed an IC50 in data set [1] (Hepatitis C virus, Huh-7, 48 h) of 5.04 µM. The “SI (selectivity index)” value in data set [1] is recorded as 2.94. The LogP in data set [2] is given as 7.08. In addition, it took 14.8 µM to reach half-maximal cytotoxicity in data set [4] (CC50 at 48 h). The same compound came in with an inhibition at 50 µM against HCV NS3/4A protease of 48.1%.

As for `CCC(C)c1ccc(-c2cc(C(=O)N/N=C/c3cccnc3)c3ccccc3n2)cc1` (stereo not shown) [Compound 7], the IC50 in data set [1] (Hepatitis C virus, Huh-7, 48 h) is 4.14 µM. In addition, the “SI (selectivity index)” value in data set [1] worked out at 2.85. Further, in data set [2], the LogP is 5.84. For the same compound, the LogS in data set [3] is recorded as −5.53. Further, the midpoint of cytotoxicity in data set [4], the CC50 at 48 h, lay at 11.8 µM. Besides, the inhibition at 50 µM on HCV NS3/4A protease worked out at 64.3%.

Compound `NC(=S)N/N=C/c1cccc(O)c1O` [Compound 8] had an IC50 in data set [1] (Hepatitis C virus, Huh-7, 48 h) of 6.23 µM. Moreover, in data set [1], the “SI (selectivity index)” value was determined as 0.18. For the same compound, in data set [2], the LogP is reported as 1.51. Further, in data set [3], the LogS is −1.89. In data set [4], this compound returned a CC50 at 48 h of 1.12 µM.

Turning to `NC(=S)N/N=C/c1ccc(O)c(O)c1` [Compound 9], in data set [2], the LogP is on record as 1.53. The LogS in data set [3] was −1.03. At HCV NS3/4A protease, this compound displayed an inhibition at 50 µM of 33.7%.

With `O=C1c2ccccc2C(=O)N1/N=C/c1cccc(O)c1O` [Compound 10], the IC50 in data set [1] (Hepatitis C virus, Huh-7, 48 h) worked out at 7.07 µM. In data set [1], the “SI (selectivity index)” value is above 7.07. Besides, the LogP in data set [2] is reported as 2.18. Further, the LogS in data set [3] is reported as −2.5. In addition, in data set [4], the CC50 at 48 h is above 50 µM.

Consider `C=CCc1cccc(/C=N/c2ccc(OC)cc2)c1O` [Compound 11], for which the IC50 was below 10 µM in data set [1] (Hepatitis C virus, Huh-7, 48 h); 5.1 µM and 5.14 µM in data set [1]. Besides, the LogP in data set [2] is given as 4.43. In addition, the LogS in data set [3] was −4.16. For the same compound, the CC50 at 48 h in data set [4] was above 50 µM.

Compound `Oc1ccc2cc(Br)ccc2c1/C=N/c1nc[nH]n1` [Compound 12] yielded an IC50 in data set [1] (Hepatitis C virus, Huh-7, 48 h) of 16.1 µM. Also, the “SI (selectivity index)” value in data set [1] is given as above 3.11. The LogP in data set [2] is recorded as 3.23. Further, the LogS in data set [3] is given as −2.67. In data set [4], the CC50 at 48 h was above 50 µM. Also, the inhibition at 50 µM on HCV NS3/4A protease came to 53%.

With `COc1ccc(-c2cc(C(=O)Nc3ccc(S(=O)(=O)Nc4nccs4)cc3)c3ccccc3n2)c(OC)c1` [Compound 14], in data set [1] (Hepatitis C virus, Huh-7, 48 h), it took 20.7 µM to reach half-maximal inhibition (IC50). Also, the “SI (selectivity index)” value in data set [1] is on record as above 2.42. Moreover, the LogP in data set [2] is on record as 5.1. Besides, in data set [3], the LogS is −7.55. The CC50 at 48 h in data set [4] is above 50 µM.

For `CCCCC(CC)C(=O)Nc1nnc(Cc2ccc(OC)cc2)s1` (stereo not shown) [Compound 15], the IC50 in data set [1] (Hepatitis C virus, Huh-7, 48 h) amounted to 28.2 µM. Also, the “SI (selectivity index)” value in data set [1] is listed as above 1.77. The LogP in data set [2] is 4.57. For the same compound, the LogS in data set [3] is −5.64. Further, the CC50 at 48 h in data set [4] is above 50 µM. This compound also returned an inhibition at 50 µM against HCV NS3/4A protease of 41.8%.

Consider `O=C(COC(=O)c1cccc(N2C(=O)C3C4c5ccccc5C(c5ccccc54)C3C2=O)c1)c1ccc(Br)cc1` (stereo not shown) [Compound 16], for which 9.42 µM corresponded to half-maximal inhibition in data set [1] (Hepatitis C virus, Huh-7, 48 h) (IC50). Also, the “SI (selectivity index)” value in data set [1] is on record as above 5.31. Further, the LogP in data set [2] is 4.48. The LogS in data set [3] was −8.04. In data set [4], this compound showed a CC50 at 48 h above 50 µM.
